Test results taken from patent US20240150370A1, “BICYCLIC PYRIDINE DERIVATIVE” (Sumitomo Pharma Co., Ltd., priority 0001, published 2024).
Where a name gives a salt, the structure may show the parent alone.

Target: human TAAR1 receptor (Homo sapiens (Human), UniProt Q96RJ0)
Test: Evaluation of agonist activity on human TAAR1 receptor (cAMP assay)
Format: cell-based
Conditions: cAMP in human TAAR1-expressing CHO cells, relative to 100 μM tyramine; for activation at 0.1 µM / activation at 1 µM / activation at 10 µM: CHO, 0.5 h, read-out: TAAR1 agonist activity at each concentration (%)
Protocol: TAAR1 is a G protein-coupled receptor that binds to G proteins (Gas), and activation of the TAAR1 receptor by agonists induces an increase in intracellular cAMP levels. Therefore, the agonist activity of the sample on the human TAAR1 receptor was evaluated using the cAMP assay method.
cAMP Hunter™ CHO-K1 TAAR1 Gs Cell Line, a cell expressing human TAAR1 receptor, was purchased. Human TAAR1-expressing CHO cells were seeded in a 96-well plate, and after culturing for 24 hours, a sample dissolved in DMSO was added and incubated at 37° C. for 30 minutes. A sample for cAMP measurement was prepared according to the cAMPHiRange kit protocol. The amount of cAMP produced by the sample was measured by time-resolved fluorescence using EnVision (excitation wavelength: 330 nm, fluorescence wavelength […]/665 nm).
Sample %=100×{(Csamp)−(Cblank)}/{(Ctyramine)−(Cblank)} • Csamp: count of sample, Ctyramine: count of 100 μM tyramine, Cblank: count of blank

Chain of human TAAR1 receptor (Q96RJ0 whole entry): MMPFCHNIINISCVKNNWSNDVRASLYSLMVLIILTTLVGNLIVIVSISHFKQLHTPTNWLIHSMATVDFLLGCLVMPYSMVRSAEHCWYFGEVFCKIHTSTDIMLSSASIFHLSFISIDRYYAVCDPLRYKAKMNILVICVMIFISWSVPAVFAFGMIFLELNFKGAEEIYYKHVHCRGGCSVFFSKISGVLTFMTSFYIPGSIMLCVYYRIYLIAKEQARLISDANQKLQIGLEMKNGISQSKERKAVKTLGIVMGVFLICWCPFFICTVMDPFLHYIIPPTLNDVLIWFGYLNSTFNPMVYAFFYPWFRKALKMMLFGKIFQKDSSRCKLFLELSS

Compound | activation at 0.1 µM (100 nM) [%] | activation at 1 µM (1000 nM) [%] | activation at 10 µM (10000 nM) [%] | TAAR1 agonist activity at each concentration (%) (100 nM) | TAAR1 agonist activity at each concentration (%) (1000 nM) | TAAR1 agonist activity at each concentration (%) (10000 nM)
NC[C@H]1c2ncccc2O[C@H]2CCCC[C@@H]21 (racemic) [Example 33, rac-1-[(5aS,9aR,10S)-6,7,8,9,9a,10-hexahydro-5aH-[1]benzpyrano[3,2-b]pyridine-10-yl]methanamine dihydrochloride] | 4 | 22 | 52 | – | – | –
C[C@H]1Oc2cc(Cl)cnc2[C@@H]1CN (racemic) [Example 85] | – | – | – | 6 | 37 | 70
Cc1ccc(-c2ccnc3c2CCCC3CN)cc1 (racemic) [Example 89, rac-1-[4-(4-methylphenyl)-5,6,7,8-tetrahydroquinolin-8-yl]methanamine dihydrochloride] | 0 | 23 | 48 | – | – | –
NCC1CCc2c(OC3CCC3)ccnc21 (racemic) [Example 91, rac-1-[4-(cyclobutyloxy)-6,7-dihydro-5H-cyclopenta[b]pyridin-7-yl]methanamine dihydrochloride] | 0 | 14 | 49 | – | – | –
Cc1ccnc2c1CCCC2CN (racemic) [Example 92, rac-1-(4-methyl-5,6,7,8-tetrahydroquinolin-8-yl)methanamine] | 0 | 0 | 0 | – | – | –
CC1(C)Oc2ccc(F)nc2C1CN (racemic) [Example 106, rac-1-(5-fluoro-2,2-dimethyl-2,3-dihydrofuro[3,2-b]pyridin-3-yl)methanamine dihydrobromide] | 38 | 70 | 78 | – | – | –
NC[C@H]1CCSc2cccnc21 (single isomer, unassigned) [Example 39, dihydrochloride] | 1 | 12 | 48 | – | – | –
NC[C@@H]1c2ncccc2OC12CC2 (single isomer, unassigned) [Example 96, rel-1-[(3′R)-3′H-spiro[cyclopropane-1,2′-furo[3,2-b]pyridine]-3′-yl]methanamine dihydrochloride] | 3 | 28 | 66 | – | – | –
NC[C@@H]1c2ncc(Cl)cc2OC12CC2 (single isomer, unassigned) [Example 98, rel-1-[(3′R)-6′-chloro-3′H-spiro[cyclopropane-1,2′-furo[3,2-b]pyridine]-3′-yl]methanamine dihydrochloride] | 1 | 9 | 37 | – | – | –
NC[C@H]1c2ncc(Cl)cc2OC12CC2 (single isomer, unassigned) [Example 99, rel-1-[(3'S)-6′-chloro-3′H-spiro[cyclopropane-1,2′-furo[3,2-b]pyridine]-3′-yl]methanamine dihydrochloride] | 9 | 39 | 62 | – | – | –
Cc1ccc2c(n1)[C@@H](CN)C1(CC1)O2 (single isomer, unassigned) [Example 100, rel-1-[(3′R)-5′-methyl-3′H-spiro[cyclopropane-1,2′-furo[3,2-b]pyridine]-3′-yl]methanamine dihydrochloride] | 0 | 17 | 50 | – | – | –
Cc1ccc2c(n1)[C@H](CN)C1(CC1)O2 (single isomer, unassigned) [Example 101, rel-1-[(3'S)-5′-methyl-3′H-spiro[cyclopropane-1,2′-furo[3,2-b]pyridine]-3′-yl]methanamine dihydrochloride] | 62 | 79 | 84 | – | – | –
NC[C@@H]1c2nc(F)ccc2OC12CC2 (single isomer, unassigned) [Example 102, rel-1-[(3′R)-5′-fluoro-3′H-spiro[cyclopropane-1,2′-furo[3,2-b]pyridine]-3′-yl]methanamine dihydrobromide] | 1 | 18 | 59 | – | – | –
NC[C@H]1c2nc(F)ccc2OC12CC2 (single isomer, unassigned) [Example 103, rel-1-[(3'S)-5′-fluoro-3′H-spiro[cyclopropane-1,2′-furo[3,2-b]pyridine]-3′-yl]methanamine dihydrobromide] | 60 | 84 | 89 | – | – | –
Cc1ccc2c(n1)[C@@H](CN)C(C)(C)O2 (single isomer, unassigned) [Example 104, dihydrochloride] | 0 | 5 | 31 | – | – | –
Cc1ccc2c(n1)[C@H](CN)C(C)(C)O2 (single isomer, unassigned) [Example 105, dihydrochloride] | 64 | 77 | 79 | – | – | –

The next lines start with the values.

activation at 0.1 µM (100 nM) [%] | activation at 1 µM (1000 nM) [%] | activation at 10 µM (10000 nM) [%] | TAAR1 agonist activity at each concentration (%) (100 nM) | TAAR1 agonist activity at each concentration (%) (1000 nM) | TAAR1 agonist activity at each concentration (%) (10000 nM) | Compound
2 | 18 | 54 | – | – | – | C[C@H]1COc2cccnc2[C@@H]1CN (racemic) [Example 1, rac-1-[(3R,4S)-3-methyl-3,4-dihydro-2H-pyrano[3,2-b]pyridin-4-yl]methanamine dihydrochloride]
17 | 56 | 75 | – | – | – | CNC[C@@H]1C[C@@H](C)Oc2cccnc21 (racemic) [Example 7]
4 | 31 | 63 | – | – | – | C[C@H]1C[C@@H](CN)c2ncccc2S1 (racemic) [Example 13]
0 | 23 | 81 | – | – | – | CC(C)[C@H]1Oc2cccnc2[C@@H]1CN (racemic) [Example 21]
0 | 25 | 73 | – | – | – | NC[C@H]1c2ncccc2O[C@@H]1CO (racemic) [Example 26]
1 | 4 | 22 | – | – | – | COC[C@H]1Oc2cccnc2[C@@H]1CN (racemic) [Example 32]
0 | 20 | 67 | – | – | – | C[C@H]1Oc2cccnc2[C@H]1CN (racemic) [Example 36, rac-1-[(2R,3R)-2-methyl-2,3-dihydrofuro[3,2-b]pyridin-3-yl]methanamine dihydrochloride]
7 | 40 | 82 | – | – | – | CC[C@@H]1C[C@H](CN)c2ncccc2O1 (racemic) [Example 60]
2 | 22 | 66 | – | – | – | CC[C@@H]1C[C@@H](CN)c2ncccc2O1 (racemic) [Example 61]
2 | 20 | 66 | – | – | – | C[C@@H]1[C@H](CN)c2ncccc2O[C@@H]1C (racemic) [Example 62, rac-1-[(2R,3R,4R)-2,3-dimethyl-3,4-dihydro-2H-pyrano[3,2-b]pyridin-4-yl]methanamine dihydrochloride]
3 | 22 | 62 | – | – | – | C[C@H]1[C@H](CN)c2ncccc2O[C@@H]1C (racemic) [Example 63]
0 | 7 | 40 | – | – | – | C[C@H]1[C@H](C)Oc2cccnc2[C@H]1CN (racemic) [Example 64]
0 | 28 | 67 | – | – | – | C[C@@H]1[C@H](C)Oc2cccnc2[C@H]1CN (racemic) [Example 65]
1 | 8 | 40 | – | – | – | CC[C@H]1COc2cccnc2[C@@H]1CN (racemic) [Example 86]
4 | 25 | 63 | – | – | – | CC[C@@H]1COc2cccnc2[C@@H]1CN (racemic) [Example 87]
59 | 90 | 96 | – | – | – | [2H][C@]1(C)Oc2cccnc2[C@H]1CN (relative stereo) [Example 95, rel-1-[(2R,3S)-2-methyl(2-^2H)-2,3-dihydrofuro[3,2-b]pyridin-3-yl]methanamine dihydrochloride]
0 | 1 | 9 | – | – | – | C[C@H]1COc2cccnc2[C@H]1CN (stereo in doubt) [Example 3, rel-1-[(3R,4R)-3-methyl-3,4-dihydro-2H-pyrano[3,2-b]pyridin-4-yl]methanamine dihydrochloride]
17 | 55 | 67 | – | – | – | C[C@@H]1COc2cccnc2[C@@H]1CN (stereo in doubt) [Example 4, rel-1-[(3S,4S)-3-methyl-3,4-dihydro-2H-pyrano[3,2-b]pyridin-4-yl]methanamine dihydrochloride]
